From patent US7763612B2, “Therapeutic amine-arylsulfonamide conjugate compounds” (Algebra, Inc., priority 2006, dated 2010)
Like-named read-outs stand apart in the source and are kept apart here.

How the values were obtained:
[1] = test system: tetrabenazine-induced behavioral effects; test: Antitetrabenazine activity in the mouse (prevention of tetrabenazine-induced behavioral effects); type: in vivo; settings: for ED50: Mus musculus, ip, read-out: ED50 (mg/kg i.p.), antitetrabenazine activity
Excerpt: Substances having an antidepressant action antagonize a number of the behavioral effects induced by tetrabenazine including locomotor activity, ptosis and hypothermia. Tetrabenazine-induced behavioral effects can be quantified using a composite index, X, where X=(1−ptosis score)/(activity score*[Temp., treated/Temp., control]) as described by Cooper, B. R., J. L. Howard, and F. E. Soroko, Animal models used in prediction of antidepressant effects in man, Journal of Clinical Psychiatry 44:63-6, 1983). 50% effective dose (ED50) values indicate a dose of compound with ‘antitetrabenazine activity’ at which the composite index, X, induced by 20 mg/kg of tetrabenazine intraperitoneally is reduced 50%.
Prevention of tetrabenazine-induced behavioral effects were measured using a modification of the method of Vernier et al., First Hahnemann Symposium on Psychosomatic Medicine, ed. Nodim and Moyer, pub Lea and Febiger, Philadelphia 1962 as described previously (Cooper, B. R., J. L. Howard, and F. E. Soroko, Animal models used in prediction of antidepressant effects in man, Journal of Clinical Psychiatry 44:63-6, 1983). Mice, groups of 12 CD1 males each, were injected intraperitoneally (i.p.) with the compounds (1420), (20a) and furosemide (10) suspended in a 0.5% 4000-centipoise methyl cellulose solution at 3 mg/mL or vehicle. All injections were administered at a vehicle volume of 10 ml/kg. The 50% effective dose (ED50) of each compound was determined by linear regression analysis of log probit plots of dose effect curves and is reported in Table 3: […]

Mice, CD1 males = test: Safety and toxicity dose-ranging study, observation for seizures and deaths after oral administration; type: in vivo, mouse; settings: CD1 male mice, p.o., doses up to 300 mg/kg, observed for one hour
Protocol: Safety and Toxicity: Dose-ranging studies were performed to determine the range of safe doses for compound (1420). […] Mice, groups of 6 CD1 males each, were administered compound suspended in a 0.5% 4000-centipoise methyl cellulose vehicle at a volume of 10 mL/kg p.o. using a 22-gauge stainless steel mouse feeding tube and 1-mL syringe at doses up to 300 mg/kg.

[2] = CD1 male mice, i.p., dose at which composite index X induced by 20 mg/kg tetrabenazine i.p. is reduced 50%

SMILES | inhibition of tetrabenazine-induced behavioral effects ([1]; CD1 male mice, i.p.) | ED50 [1] [mg/kg] | ED50 [1, 2] [mg/kg] | serious adverse events (seizures and deaths) (Mice, CD1 males)
C[C@@H]1CO[C@@](O)(c2cc(F)cc(F)c2)[C@H](C)N1 [20a, (2S,3S,5R)-2-(3,5-difluorophenyl)-2-hydroxy-3,5-dimethylmorpholine] | inhibited tetrabenazine-induced behavioral effects | 0.2 | – | –
C[C@@H]1CO[C@@](O)(c2cc(F)cc(F)c2)[C@H](C)N1C(=O)OCOC(=O)c1cc(S(N)(=O)=O)c(Cl)cc1NCc1ccco1 [compound 1420, (2S,3S,5R)-4-[5-(aminosulfonyl)-4-chloro-2-[(2-furanylmethyl)amino]benzoyloxymethoxycarbonyl]-2-(3,5-difluorophenyl)-3,5-dimethyl-2-morpholinol] | inhibited tetrabenazine-induced behavioral effects | – | 3.6 | No seizures or deaths were observed in any animals at any dose
NS(=O)(=O)c1cc(C(=O)O)c(NCc2ccco2)cc1Cl [furosemide, 5-(aminosulfonyl)-4-chloro-2-[(2-furanylmethyl)amino]benzoic acid] | – | – | > 30 | –
